In ChEMBL document CHEMBL5724562, “Toxicity screen in isolated B cell assay results for EUbOPEN Chemogenomics Library” (2024):
Positions of bridges follow the written chain, without caps; N, C: chain ends. Non-standard residues stand in square brackets, D forms with d. Residues, ends and D or L forms follow the SMILES beside them. *: point of attachment. dPhe(4-NHCONH2) = NC(=O)Nc1ccc(C[C@@H](N)C(=O)O)cc1; Dihydroorotyl(S) = O=C1C[C@@H](C(=O)*)NC(=O)N1; dPhe(4-Cl) = N[C@H](Cc1ccc(Cl)cc1)C(=O)O; Phe(4-NH2) = Nc1ccc(C[C@H](N)C(=O)O)cc1; d2Nal = N[C@H](Cc1ccc2ccccc2c1)C(=O)O; Arg(Me) = CNC(=N)NCCC[C@H](N)C(=O)O; Lys(iPr) = CC(C)NCCCC[C@H](N)C(=O)O; d3Pal = N[C@H](Cc1cccnc1)C(=O)O; d4Pal = N[C@H](Cc1ccncc1)C(=O)O; Orn = NCCC[C@H](N)C(=O)O; azaGly = NNC(=O)O; Mpa = O=C(O)CCS

system: B cell; test: Cytotoxicity screening of chemical probes in isolated B cell assay. Data is normalized to DMSO control, the cell viability average of replicates are reported. Reduction of ATP level more than 20% indicate compromised cell health status.; conditions: human, 0.1 µM

| SMILES | Cell Viability |
| --- | --- |
| CCCOc1ccc([C@H]2[C@H](C(=O)O)[C@@H](c3ccc4c(c3)OCO4)CN2CC(=O)Nc2c(CC)cccc2CC)cc1 [A-192621] | 97.3784% |
| CN1C(=O)[C@@H](N2CCc3c(nn(Cc4ccccc4)c3Br)C2=O)COc2ccccc21 [TP-030-2] | 101.749% |
| Nc1c(C(=O)NCc2ccc(C(=O)NCCCC3CCCCC3)cc2)cnn1-c1ccccc1 [SR-318] | 97.9561% |
| O[C@]1(C(F)(F)F)CCCC[C@H]1Nc1ccc(F)cc1 [BAY-390] | 101.834% |
| COCCOc1nc(-c2ccc(Cl)nc2)nc2c1CN(C(=O)c1ncn3ccccc13)CC2 [THPP-1] | 97.9791% |
| COc1ccc2cc(OCC3(C(=O)O)CN(C(=O)c4ccc(F)cc4)C3)ccc2c1 [PF-04418948] | 98.5812% |
| CNC(=O)c1ccc(Nc2ncc(C(F)(F)F)c(NCc3nccnc3N(C)S(C)(=O)=O)n2)cc1 [DEFACTINIB] | 103.534% |

same assay, conditions: human, 1 µM

| SMILES | Cell Viability |
| --- | --- |
| CNC(=N)NCCC[C@H](NC(=O)[C@H](CC(C)C)NC(=O)NNC(=O)[C@H](Cc1ccccc1)NC(=O)[C@H](CO)NC(=O)[C@H](CC(N)=O)NC(=O)[C@@H](Cc1ccncc1)NC(=O)[C@H](N)Cc1ccc(O)cc1)C(=O)N[C@@H](Cc1ccccc1)C(N)=O [KISS1-305] (H-[dY][d4Pal]NSF[azaGly]L[Arg(Me)]F-NH2) | 101.037% |
| C[C@H]1CC(=O)Nc2cc(C(=O)NCCC3CC3)ccc2N1C(=O)N1CC2CC2C1 (stereo not given in full) | 100.735% |
| Cl.O=c1c2cccn2c2ccccc2n1CCCN1CCC(c2ccc(Cl)cc2)CC1 | 96.0052% |
| CC(=O)Nc1cccc(-n2c(=O)n(C3CC3)c(=O)c3c(Nc4ccc(I)cc4F)n(C)c(=O)c(C)c32)c1 [TRAMETINIB] | 85.5796% |
| Cc1ccc(/C(=C\CN2CCCC2)c2ccccn2)cc1 [TRIPROLIDINE] | 98.8273% |
| COc1ccncc1C(=O)NC(=O)Nc1ccc(-c2ccccc2)c(C(F)(F)F)c1 | 100.618% |
| Clc1cc2c(NC3CCCC3)nnc(-c3ccncc3)c2cc1Cl | 99.0979% |
| COc1cc(C(=O)N(CCCc2ccccc2)Cc2ccc(CC(=O)O)cc2)cc(OC)c1C | 101.167% |
| COc1ccccc1S(=O)(=O)Nc1ccc2c(c1)CN(C)C(=O)N2 | 94.2739% |
| C[C@@H](OC[C@@]1(c2ccccc2)CC[C@]2(CCC(=O)N2)CN1)c1cc(C(F)(F)F)cc(C(F)(F)F)c1 [ROLAPITANT] | 97.3629% |
| C[C@@H](O[C@H]1OCCN(Cc2n[nH]c(=O)[nH]2)[C@H]1c1ccc(F)cc1)c1cc(C(F)(F)F)cc(C(F)(F)F)c1 [APREPITANT] | 101.584% |
| O=C(O)CNC(=O)c1c(O)c2ccccc2n(Cc2ccccc2)c1=O | 96.2966% |
| CC(C)N(CCCCOCC(=O)NS(C)(=O)=O)c1cnc(-c2ccccc2)c(-c2ccccc2)n1 [SELEXIPAG] | 99.3334% |
| Cl.Cl.NC1(c2ccc(-c3nc4ccn5c(=O)[nH]nc5c4cc3-c3ccccc3)cc2)CCC1 | 85.9288% |
| CC1(C)C(N)=Nc2cc(OCCCN3Cc4ccc(OCCc5cn(CC(=O)N6CCC(CCN7CCCC7)CC6)nn5)cc4C3)c(OCC3CC3)cc21 | 92.0303% |
| CC(C)Cc1ccc([C@@H](C)C(=O)NS(C)(=O)=O)cc1 [REPARIXIN] | 94.4279% |
| O=C(Nc1cccnn1)N1CCC(=Cc2cccc(Oc3ccc(C(F)(F)F)cn3)c2)CC1 | 98.4854% |
| C[C@@H](c1cccc(CN)c1)n1cc(Cl)cc(C(N)=O)c1=N.Cl | 100.561% |
| COc1cc(C#N)ccc1S(=O)(=O)Nc1ccc2c(c1)cc(C)c(=O)n2C | 99.4263% |
| CC(=O)C1=C(C)N(c2cccc(C(F)(F)F)c2)C(=O)N[C@@H]1c1ccc(C#N)nc1 [BAY-678] | 97.287% |

| SMILES | Cell Viability |
| --- | --- |
| CCCCN(CCCC)C(=O)CN1C[C@@H](c2cc(OC)c3c(c2)OCO3)[C@H](C(=O)O)[C@H]1CC(C)(C)CCC.Cl | 89.8179% |
| CCC(=O)Nc1cc(Nc2cc(NC3CC3)n3ncc(C#N)c3n2)ccc1C | 88.1167% |
| Cc1cc2c(cc1N1C(=O)c3cccc4c(CCCO)ccc(c34)C1=O)n(C)c(=O)n2C | 92.6096% |
| C[C@H](c1ccnc(Nc2nc3ccc(-c4cc(N(C)C)ncn4)cc3[nH]2)c1)N1CCN(C(=O)CC(F)(F)F)CC1 [BAY-985] | 78.1838% |
| Cc1nc[nH]c1CCN.Cl | 99.4273% |
| COc1cc2c(cc1OCCCN1CCCC1)N=C(N)C21CCC1 | 98.8274% |
| CCOc1nc2cccc(C(=O)O)c2n1Cc1ccc(-c2ccccc2-c2nnn[nH]2)cc1 | 101.389% |
| N#CC1(c2ccccn2)CCN(Cc2cc(C(=O)O)c(=O)n3ccccc23)CC1 [MSD-M1PAM] | 98.7103% |
| O=C(NC[C@H](O)CN1CCc2ccccc2C1)c1ccnc(NC2CCC2)c1 | 91.5741% |
| C[C@@H](NC(=O)Nc1cc2[nH]ncc2c(CO)n1)c1ccccc1 [ERKi] | 88.9841% |
| CCOC(=O)CCNc1cc(N2CCc3ccccc3CC2)nc(-c2ccccn2)n1 | 95.6308% |
| COc1ccc(C(=O)N2CCN(C(=O)/C=C/c3ccc(Br)cc3)CC2)cc1 | 97.705% |
| O=C(N1CCS(=O)(=O)CC1)N1C[C@H](c2ccc(OC(F)(F)F)cc2)C[C@H](c2nc(C3CC3)no2)C1 [BAY-386] | 95.9614% |
| CN(C)CC#Cc1ccc(OCCCc2sc(N3CCc4cccc(C(=O)Nc5nc6ccccc6s5)c4C3)nc2C(=O)O)c(F)c1 [A-1155463] | 88.7648% |
| CC(=O)N[C@H](Cc1ccc2ccccc2c1)C(=O)N[C@H](Cc1ccc(Cl)cc1)C(=O)N[C@H](Cc1cccnc1)C(=O)N[C@@H](CO)C(=O)N[C@@H](Cc1ccc(NC(=O)[C@@H]2CC(=O)NC(=O)N2)cc1)C(=O)N[C@H](Cc1ccc(NC(N)=O)cc1)C(=O)N[C@@H](CC(C)C)C(=O)N[C@@H](CCCCNC(C)C)C(=O)N1CCC[C@H]1C(=O)N[C@H](C)C(N)=O [DEGARELIX] (Ac-[d2Nal][dPhe(4-Cl)][d3Pal]S[Phe(4-NH2)](Dihydroorotyl(S))[dPhe(4-NHCONH2)]L[Lys(iPr)]P[dA]-NH2) | 102.434% |
| COc1ccc(CCc2nc3cc(-c4c(C)noc4C)ccc3n2C[C@H](C)N2CCOCC2)cc1Cl | 94.0053% |
| CCCCC(=O)N(Cc1ccc(-c2ccccc2-c2nnn[nH]2)cc1)[C@H](C(=O)O)C(C)C | 103.145% |
| Cc1cccc(-c2cnc3occ(-c4ccc(C(=O)O)c(C5CCCC5)c4)c3c2)c1 | 94.5514% |
| COc1cc(Nc2nccc(-c3cnn4nc(OC)ccc34)n2)cc(C(F)(F)F)c1 | 93.0077% |
| CCOc1ccc(C[C@H]2NC(=O)CCSSC[C@@H](C(=O)N3CCC[C@H]3C(=O)N[C@@H](CCCN)C(=O)NCC(N)=O)NC(=O)[C@H](CC(N)=O)NC(=O)[C@H]([C@@H](C)O)NC(=O)[C@H]([C@@H](C)CC)NC2=O)cc1 [ATOSIBAN] ([Mpa][dY](Et)ITNCP[Orn]G-NH2; disulfide 1-6) | 101.789% |

| SMILES | Cell Viability |
| --- | --- |
| CCCn1c(=O)c2[nH]c(C3CCCC3)nc2n(CCC)c1=O [1,3-DIPROPYL-8-CYCLOPENTYLXANTHINE [DPCPX]] | 101.399% |
| Cc1sc2c(c1C)C(c1ccc(Cl)cc1)=N[C@@H](CC(=O)OC(C)(C)C)c1nnc(C)n1-2 | 83.2653% |
| Nc1nc(NCc2ccccc2)nc(-c2ccccc2CO)n1 [Ogerin] | 100.729% |
| CC1(C)[C@H]2C[C@H](C/C=C\CCCC(=O)O)[C@@H](NC(=O)c3csc4ccc(O)cc34)[C@@H]1C2 | 100.906% |
| CC(=O)Nc1c(F)cc(C(=O)N[C@H]2CC[C@H](O)CC2)cc1O[C@@H](C)c1ccccc1 [GSK046] | 96.5866% |
| CN([C@@H]1CCc2c(CC(=O)O)c3ccccc3n2C1)S(=O)(=O)c1ccc(F)cc1 [MK-7246] | 96.8838% |
| COCc1nc2cnc3cc(-c4c(C)noc4C)c(OC[C@H]4CCNC4)cc3c2n1[C@H](C)c1ccccc1 [GSK778] | 95.4048% |
| CSc1cc2c(cc1C(F)(F)F)N(C(=O)Nc1cccnc1)CC2 | 99.9626% |
| Cc1cc(-n2nc(Cc3cc(F)cc(C(F)(F)F)c3)nc2C)ccc1C(N)=O [TP-024] | 100.697% |
| O=C(NCCN1CCOCC1)c1ccc2c(c1)C(=O)c1ccc(Nc3ccc(F)c(NC(=O)c4ccccc4)c3)cc1CC2 [FS-694] | 91.9931% |
| Cc1nnc2c3ccccc3c(N[C@@H](C)[C@H](c3ccccc3)N(C)C)nn12 | 95.5642% |
| O=S(=O)(c1ccccc1)c1cnc2c(N3CCNCC3)cccc2c1 [INTEPIRDINE] | 101.733% |
| CO[C@H]1CC[C@H](CNc2ccc(S(=O)(=O)NC(=O)c3ccc(N4CCN(CC5=C(c6ccc(Cl)cc6)CC(C)(C)CC5)CC4)cc3Oc3cnc4[nH]ccc4c3)cc2[N+](=O)[O-])CC1 [A-1211212] | 88.4422% |
| O=C(c1ccc(C(=O)N2CCC(N3CCCC3)CC2)c(Nc2ccccc2)c1)N1CCC(N2CCCC2)CC1 | 93.0388% |
| CN(C)[C@@H]1CCN(c2cc(-c3ccccc3)nc3ccnn23)C1 [(R)-ZINC-3573] | 100.756% |
| Cc1cc(OCCCS(C)(=O)=O)cc(C)c1-c1cccc(COc2ccc3c(c2)OC[C@H]3CC(=O)O)c1 | 101.968% |
| O=C(NCCCN1CCOC1=O)c1cnc(NCc2cc(Br)ccc2Br)nc1NC1CCCC1 | 100.266% |
| Cn1nc(C(F)(F)F)cc1-c1cnc(N2CCc3cc(S(=O)(=O)Nc4c(F)cc(Cl)cc4F)cc(N4CCCC4=O)c32)nc1 [TP-020] | 96.7008% |
